The text below walks through data of patent publication US20250152550A1, “LYMPH-TARGETING FORMULATIONS” (Monash University, priority 2021, published 2025).

The structures appear in SMILES notation. A value given as a limit tells only on which side of the number the result lay.

Data set [1] is classed as in vivo. Particulars: intestinal and IV groups; below the limit of quantitation.
Protocol: Systemic availability was determined in lymph-intact anaesthetised rats with cannulas inserted into the carotid artery and duodenum for blood collection and formulation infusion, respectively. To enable the calculation of absolute bioavailability an additional group was administered orlistat intravenously via a jugular vein cannula, and blood samples collected from a carotid artery cannula over time.
To enable determination of systemic availability following intestinal dosing of selected formulations (i.e. the 40 mg oleic acid and olive oil formulations containing 8 mg/kg orlistat) a separate group of lymph-intact animals (i.e. non-lymph cannulated) were cannulated at the duodenum and carotid artery to enable formulation administration and blood collection, respectively. After surgery the rats were hydrated via intraduodenal infusion of 2.8 ml/h normal saline for at least 30 min, followed by intraduodenal infusion of the formulations at 2.8 ml/h for 2 h. […]
For the plasma pharmacokinetic studies, the absolute bioavailability following intestinal delivery of orlistat was calculated from:
Where AUC0-8h intestinally administered and IV administered are the area under the plasma concentration time curves from time 0 to 8 h after intestinal and IV administration, respectively. Plasma AUCs were calculated using the linear trapezoidal method.
The nature of data set [2]: Lymph and plasma pharmacokinetics of orlistat in acute pancreatitis rats. It counts as in vivo, rat. Conditions: AP rats relative to healthy animals. The text has this: FIG. 4 illustrates lymph and plasma pharmacokinetics of orlistat in lymph diverted or lymph intact sham or acute pancreatitis (AP) rats intestinally administered a blank long chain fatty acid (LC-FA), orlistat LC-FA (LC-FA+O), or orlistat lipid free formulation (LFF+O). Dose-normalised lymph concentration of total orlistat (open and closed ring forms) over time (Panel A), cumulative lymphatic transport of total orlistat (open and closed ring forms) over time (Panel B), gut-lymph concentrations of triglyceride (TG) (Panel C), cumulative TG mass transport in gut-lymph (Panel D), dose-normalised plasma concentrations of total orlistat (open and closed ring forms) (Panel E), and lymph to plasma concentration ratios of orlistat (Panel F) over time. […]
In the previous study it was determined in healthy rats that orlistat administration in a long chain fatty acid (LC-FA) formulation promotes lymphatic drug transport when compared to administration in a lipid free formulation (LFF). […] Blood pressure and heart rate were also determined. […]
After initiation of dosing of the formulations, lymph was collected continuously for the duration of the experiment (i.e. up to 4 h post initiation of formulation dosing) into pre-weighed 1.5 ml tubes that were kept in an ice bath. Lymph collection tubes were changed every hour and lymph flow was determined gravimetrically. […]

For data set [3] the following is noted: cited from earlier work.
Setting [4] is: healthy volunteers, oral, standard capsule formulations.

On to `CCCCCCCCCCC[C@@H](C[C@@H]1OC(=O)[C@H]1CCCCCC)OC(=O)[C@H](CC(C)C)NC=O` [orlistat], for which, in data set [1], the “Plasma concentration of closed ring form of orlistat” value was under 50 ng/mL. For the same compound, the “Gut-lymph uptake of orlistat in animals with AP” value in data set [2] is “attenuated relative to healthy animals”. For the same compound, in data set [3] (setting [4]), the “Dose recovered in the faeces” value was “more than 97%” and the “Dose recovered in the faeces in a non-metabolised form” value is 83.1%. Besides, the “Absorption and bioavailability of orlistat” value in data set [3] (oral administration in standard formulations, fed or fasted state) is under 1 % dose.
